# Assay results published in ChEMBL document CHEMBL1201862, “PubChem BioAssay data set” (2004).
#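 Method: 48-hour compound exposure of cells in 96-well plates, five concentrations, linear interpolation of endpoints. GI50: concentration for 50% inhibition of growth.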 Activity calls are given as the source filed them. Rule as the data show it: active = GI50 up to about 1.1 µM and inactive = higher.
# How the values were obtained:
# Test in all cases: growth of human tumour cells (NCI), 48 h
# DLD-1 = tested on: DLD-1
# DMS-114 = tested on: DMS-114
# DMS-273 = tested on: DMS-273
# KM-20L2 = tested on: KM-20L2
# LXFL 529 = tested on: LXFL 529
# M19-MEL = tested on: M19-MEL
# RXF 631 = tested on: RXF 631
# SNB-78 = tested on: SNB-78
# XF498 = tested on: XF498
Compound,GI50 (DLD-1),GI50 (DMS-114),GI50 (DMS-273),GI50 (KM-20L2),GI50 (LXFL 529),GI50 (M19-MEL),GI50 (RXF 631),GI50 (SNB-78),GI50 (XF498)
CC(=O)c1c(C)[n+]([O-])c2cc(C)c(C)cc2[n+]1[O-],> 100 µM (inactive),> 100 µM (inactive),> 100 µM (inactive),> 100 µM (inactive),> 100 µM (inactive),> 100 µM (inactive),> 100 µM (inactive),> 100 µM (inactive),> 100 µM (inactive)
COc1cc2c3c(c1OC)-c1cc4c(cc1CC3(C#N)N(C(=O)c1ccccc1)CC2)OCO4 (stereo not given),> 55.7 µM (inactive),26.5 µM (inactive),21.6 µM (inactive),> 80.9 µM (inactive),17.7 µM (inactive),46.8 µM (inactive),,11.4 µM (inactive),6.25 µM (inactive)
Nc1nc2c(ncn2CCOC(c2ccccc2)P(=O)(O)O)c(=O)[nH]1 (stereo not given),> 100 µM (inactive),,> 100 µM (inactive),> 100 µM (inactive),> 100 µM (inactive),,,> 100 µM (inactive),
COC(=O)C(=O)C(/C(=N/N)C(=O)Nc1ccccc1C(N)=O)c1nc2ccc([N+](=O)[O-])cc2nc1O (stereo not given),> 100 µM (inactive),> 100 µM (inactive),> 100 µM (inactive),> 100 µM (inactive),> 100 µM (inactive),> 100 µM (inactive),,> 100 µM (inactive),> 100 µM (inactive)
Cc1ccc([N+](=O)[O-])c2c(NCCCN(C)C)ccnc12,,,,26.4 µM (inactive),,,,55.7 µM (inactive),
O=C1OCc2nc3c(c(-c4ccccc4C(F)(F)F)c21)C(=O)OC3,> 100 µM (inactive),> 100 µM (inactive),> 100 µM (inactive),> 100 µM (inactive),> 100 µM (inactive),> 100 µM (inactive),,> 100 µM (inactive),
COc1ccccc1C1C(C(=O)Nc2ccccc2)=C(C)NC(C)=C1C(=O)Nc1ccccc1,,41.8 µM (inactive),34 µM (inactive),94.8 µM (inactive),61.5 µM (inactive),50.6 µM (inactive),62.8 µM (inactive),> 100 µM (inactive),36.3 µM (inactive)
O=[N+]([O-])c1ccc(C2N3CCCCC3[C@H]3CCCCN23)cc1 (stereo not given in full),> 100 µM (inactive),,> 100 µM (inactive),> 100 µM (inactive),> 100 µM (inactive),> 100 µM (inactive),> 100 µM (inactive),> 100 µM (inactive),> 100 µM (inactive)
S=c1[nH]c(=S)c2nnn(-c3ccccc3)c2[nH]1,> 100 µM (inactive),5.97 µM (inactive),> 100 µM (inactive),> 100 µM (inactive),> 100 µM (inactive),> 100 µM (inactive),,,> 100 µM (inactive)
O=Cn1c2ccccc2c2ccccc21,> 100 µM (inactive),> 100 µM (inactive),> 100 µM (inactive),> 100 µM (inactive),> 100 µM (inactive),> 100 µM (inactive),,> 100 µM (inactive),36.1 µM (inactive)
NC(=O)NNC(=O)CCn1[nH]c(=O)c(Cl)c(Cl)c1=O,> 100 µM (inactive),> 100 µM (inactive),> 100 µM (inactive),> 100 µM (inactive),> 100 µM (inactive),> 100 µM (inactive),> 100 µM (inactive),> 100 µM (inactive),
CC(C)NC(=O)OCc1nnn2c1C(OC(=O)NC(C)C)CC2 (stereo not given),> 100 µM (inactive),> 100 µM (inactive),> 100 µM (inactive),> 100 µM (inactive),> 100 µM (inactive),> 100 µM (inactive),> 100 µM (inactive),> 100 µM (inactive),> 100 µM (inactive)
O=c1[nH]c2nc3ccccc3c(=O)n2nc1Cc1ccccc1,> 100 µM (inactive),> 100 µM (inactive),> 100 µM (inactive),> 100 µM (inactive),> 100 µM (inactive),,,> 100 µM (inactive),
N#Cc1cccc(C2SCc3nc4ccccc4n32)c1 (stereo not given),65.5 µM (inactive),49.4 µM (inactive),> 100 µM (inactive),> 100 µM (inactive),42.1 µM (inactive),,> 100 µM (inactive),> 100 µM (inactive),33.6 µM (inactive)
O=C(NCc1ccccc1)c1cc2ccc(O)c(O)c2cn1,18.5 µM (inactive),12.8 µM (inactive),17.4 µM (inactive),> 100 µM (inactive),16.9 µM (inactive),1.8 µM (inactive),,18.1 µM (inactive),17.4 µM (inactive)
Cc1c2c(cc3c1C(=O)C(=O)C1=C3OC[C@@H]1C)C(C)(C)CCC2,18.7 µM (inactive),16.8 µM (inactive),14.4 µM (inactive),19.5 µM (inactive),16 µM (inactive),2.64 µM (inactive),,,29.9 µM (inactive)
COc1ccc(C2C(Cl)C(=O)N2n2cnc3ccccc3c2=O)cc1 (stereo not given),> 100 µM (inactive),72.8 µM (inactive),82.4 µM (inactive),> 100 µM (inactive),62.1 µM (inactive),76 µM (inactive),,> 100 µM (inactive),> 100 µM (inactive)
CCOc1ccccc1NC(=O)CC1C(=O)Nc2ccccc2[S+]1[O-] (stereo not given),> 100 µM (inactive),> 100 µM (inactive),66.5 µM (inactive),> 100 µM (inactive),56.8 µM (inactive),> 100 µM (inactive),,> 100 µM (inactive),44.8 µM (inactive)
COc1cc(C2c3cc4c(cc3[C@H](NC(=O)c3cccs3)C3COC(=O)[C@H]23)OCO4)cc(OC)c1OC (stereo not given in full),0.0297 µM (active),0.0113 µM (active),0.0188 µM (active),0.0199 µM (active),0.0296 µM (active),,,> 100 µM (inactive),
C/C(=C\C(C)COCc1ccccc1)[C@H](COCc1ccccc1)OCc1ccccc1 (stereo not given in full),,57.5 µM (inactive),> 100 µM (inactive),> 100 µM (inactive),82 µM (inactive),> 100 µM (inactive),> 100 µM (inactive),> 100 µM (inactive),8.53 µM (inactive)
CCCCCCCCCCCC[N+]12CC[N+](C)(CC1)CC2,13.8 µM (inactive),19.9 µM (inactive),3.69 µM (inactive),14.9 µM (inactive),25.7 µM (inactive),19.5 µM (inactive),,26.4 µM (inactive),20.7 µM (inactive)
O=C1CCc2ccc(O)c(c2)Oc2ccc(cc2)[C@@H]2O[C@@H]2CO1,55.8 µM (inactive),20 µM (inactive),,88.5 µM (inactive),33.2 µM (inactive),38.1 µM (inactive),,,5.26 µM (inactive)
